Reference: patent US20040241818A1, “Assay” (priority 2000, published 2004)
Where two headings read alike, the source gives them in different places.

Molecular target: T1, truncated Itk (Homo sapiens, UniProt Q08881)
T1 construct: fused on or other part: added start methionine
T1 sequence (Q08881 171-615 limits assumed): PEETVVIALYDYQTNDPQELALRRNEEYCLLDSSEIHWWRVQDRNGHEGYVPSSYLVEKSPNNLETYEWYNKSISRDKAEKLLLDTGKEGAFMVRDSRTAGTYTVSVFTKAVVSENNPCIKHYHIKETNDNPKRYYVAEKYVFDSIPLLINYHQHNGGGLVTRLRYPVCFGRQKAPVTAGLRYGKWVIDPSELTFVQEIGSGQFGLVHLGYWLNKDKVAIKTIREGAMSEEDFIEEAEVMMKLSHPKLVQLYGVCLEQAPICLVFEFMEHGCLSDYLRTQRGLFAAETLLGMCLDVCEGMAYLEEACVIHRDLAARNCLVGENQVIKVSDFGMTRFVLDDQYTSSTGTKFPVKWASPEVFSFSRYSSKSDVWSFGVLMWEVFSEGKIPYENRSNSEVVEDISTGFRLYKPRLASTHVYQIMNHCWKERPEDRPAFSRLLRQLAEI
Experiment: Truncated Itk kinase assay (HTRF)
Type: biochemical
Details: UK:ITK, 0.05 mM ATP, 15 min pre-incubation
Experimental: The 100 000 g supernatant was stored at −85° C. Stored lysates were thawed on ice, ATP and MgCl2 (0.1 mM and 10 mM) were added. Following incubation on ice the kinase was diluted in 40 mM HEPES (pH 7.4). The kinase reaction mixture contained 40 mM HEPES (pH 7.4). 10 mM MgCl2, 0.05 mM ATP, 0.0005 mM peptide (Biotin-[…]). The reaction was stopped by the addition of EDTA (25 mM). […] An increase in the level of fluorescence indicates an increase in kinase activity.
Compound Testing in Kinase Assay
Substrates (ATP, src-peptide) added
Reaction stopped with EDTA
HTRF reagents (APC, Eu labelled antibody (antiPY antibody)) added
Read signal on plate reader

[1] = PIC50 is -log10 IC50 in molar, read-out: Average PIC50 (converted)

| Compound | IC50 (read-out: Average IC50) [nM] | IC50 [1] [nM] |
| --- | --- | --- |
| CNc1ccc(-c2cc(=O)c3c(O)cc(O)cc3o2)cc1 | 813 | 813 |
| O=c1c(O)c(-c2cc(O)c(O)c(O)c2)oc2cc(O)cc(O)c12 | 1660 | 1660 |
